Key:
Grp94 = assay: Competitive binding fluorescence polarization (FP) assay, Grp94; settings: selectivity over Hsp90α; n.s. = non-selective
Description: The Fluorescence Polarization Assay (FP) was performed in 96-well flat-bottom plates (Santa Cruz Biotechnology) with a final volume of 100 μL per well. […] Each well contained 10 nM of Hsp90α or Grp94 (Enzo Biochem Inc.) and 6 nM of FITC-GDA (fluorescent tracer, stock in DMSO). Compounds were tested in triplicate at final concentrations of 100 μM, 10 μM, 1 μM, 0.1 μM and 0.01 μM with each final concentration containing 1 % DMSO. Each plate included control wells containing: (i) buffer only (background polarization), (ii) protein plus tracer (maximum polarization control), and (iii) tracer only (minimum polarization control). Plates were incubated on a rocker at 4 °C for 24 h.

Hsp90α = Hsp90α (Homo sapiens, UniProt P07900); assay: Competitive binding fluorescence polarization (FP) assay, Hsp90α; settings: FITC-GDA tracer, mean of triplicates ± SD, read-out: Apparent Kd Hsp90α
Description: The Fluorescence Polarization Assay (FP) was performed in 96-well flat-bottom plates (Santa Cruz Biotechnology) with a final volume of 100 μL per well. The assay buffer consisted of 20 mM HEPES, 50 mM KCl, 10.5 mM MgCl2, 20 mM Na2MoO4, 0.01 % NP-40 detergent (NP-40), and pH 7.3 with fresh 2 mM dithiothreitol (DTT) and 0.1 mg/mL bovine γ-globulin (BGG). Each well contained 10 nM of Hsp90α or Grp94 (Enzo Biochem Inc.) and 6 nM of FITC-GDA (fluorescent tracer, stock in DMSO). Compounds were tested in triplicate at final concentrations of 100 μM, 10 μM, 1 μM, 0.1 μM and 0.01 μM with each final concentration containing 1 % DMSO. Each plate included control wells containing: (i) buffer only (background polarization), (ii) protein plus tracer (maximum polarization control), and (iii) tracer only (minimum polarization control). Plates were incubated on a rocker at 4 °C for 24 h. Fluorescence polarization (mP units) was measured at 37 °C using excitation and emission wavelengths of 485 and 528 nm, respectively. Apparent Kd values were determined via calculations from the polarization data obtained at which the tracer was displaced by 50 % by the compounds of interest.
[I50] = concentration of free inhibitor at 50% inhibition, [L50] = concentration of free fluorescence labeled ligand molecule at 50% inhibition, [P0] = concentration of free protein at 0% inhibition, K = dissociation constant of the protein−ligand complex.^4

Fold selective for Grp94 (Grp94)	Kd (Hsp90α)	SMILES
5 fold	3.38 ± 0.33 µM	COC(=O)c1c(O)cc(O)c(Cl)c1CCn1nncc1Cc1ccc(Br)cc1 [Compound 33, methyl 2-(2-(5-(4-bromobenzyl)-1H-1,2,3-triazol-1-yl)ethyl)-3-chloro-4,6-dihydroxybenzoate]
2 fold	8.32 ± 2.55 µM	COC(=O)c1c(O)cc(O)c(Cl)c1CCn1nncc1Cc1ccccc1Cl [Compound 39, methyl 3-chloro-2-(2-(5-(2-chlorobenzyl)-1H-1,2,3-triazol-1-yl)ethyl)-4,6-dihydroxybenzoate]
n.s.	0.81 ± 0.06 µM	CCc1ccc(Cc2cnnn2CCc2c(Cl)c(O)cc(O)c2C(=O)OC)cc1 [Compound 35, methyl 3-chloro-2-(2-(5-(4-ethylbenzyl)-1H-1,2,3-triazol-1-yl)ethyl)-4,6-dihydroxybenzoate]
3 fold	1.63 ± 0.88 µM	COC(=O)c1c(O)cc(O)c(Cl)c1CCn1nnnc1Cc1ccccc1 [Compound 20, methyl 2-(2-(5-benzyl-1H-tetrazol-1-yl)ethyl)-3-chloro-4,6-dihydroxybenzoate]
9 fold	5.7 ± 0.5 µM	COC(=O)c1c(O)cc(O)c(Cl)c1CCn1nncc1Cc1ccc(Cl)cc1 [Compound 32, methyl 3-chloro-2-(2-(5-(4-chlorobenzyl)-1H-1,2,3-triazol-1-yl)ethyl)-4,6-dihydroxybenzoate]
7 fold	41.5 ± 7.6 µM	COC(=O)c1c(O)cc(O)c(Cl)c1CCn1nncc1Cc1ccc(OC)cc1 [Compound 36, methyl 3-chloro-4,6-dihydroxy-2-(2-(5-(4-methoxybenzyl)-1H-1,2,3-triazol-1-yl)ethyl)benzoate]
8 fold	5.24 ± 0.24 µM	COC(=O)c1c(O)cc(O)c(Cl)c1CCn1nncc1Cc1ccccc1 [Compound 14, methyl 2-(2-(5-benzyl-1H-1,2,3-triazol-1-yl)ethyl)-3-chloro-4,6-dihydroxybenzoate]
12 fold	9.22 ± 0.48 µM	CCc1ccccc1Cc1cnnn1CCc1c(Cl)c(O)cc(O)c1C(=O)OC [Compound 46, methyl 3-chloro-2-(2-(5-(2-ethylbenzyl)-1H-1,2,3-triazol-1-yl)ethyl)-4,6-dihydroxybenzoate]
2 fold	4.72 ± 0.44 µM	COC(=O)c1c(O)cc(O)c(Cl)c1CCn1nncc1Cc1ccc(F)cc1 [Compound 31, methyl 3-chloro-2-(2-(5-(4-fluorobenzyl)-1H-1,2,3-triazol-1-yl)ethyl)-4,6-dihydroxybenzoate]
3 fold	6.33 ± 1.33 µM	COC(=O)c1c(O)cc(O)c(Cl)c1CCn1nncc1Cc1cccc(Cl)c1 [Compound 38, methyl 3-chloro-2-(2-(5-(3-chlorobenzyl)-1H-1,2,3-triazol-1-yl)ethyl)-4,6-dihydroxybenzoate]
n.s.	0.62 ± 0.04 µM	COC(=O)c1c(O)cc(O)c(Cl)c1CCc1cnnn1Cc1ccccc1 [Compound 10, methyl 2-(2-(1-benzyl-1H-1,2,3-triazol-5-yl)ethyl)-3-chloro-4,6-dihydroxybenzoate]
9 fold	6.03 ± 0.37 µM	COC(=O)c1c(O)cc(O)c(Cl)c1CCn1nncc1Cc1ccc(C)cc1 [Compound 34, methyl 3-chloro-4,6-dihydroxy-2-(2-(5-(4-methylbenzyl)-1H-1,2,3-triazol-1-yl)ethyl)benzoate]
n.s.	6.79 ± 0.1 µM	COC(=O)c1c(O)cc(O)c(Cl)c1CCn1cc(Cc2ccccc2)nn1 [Compound 16, methyl 2-(2-(4-benzyl-1H-1,2,3-triazol-1-yl)ethyl)-3-chloro-4,6-dihydroxybenzoate]
30 fold	8.92 ± 0.16 µM	CCOc1ccccc1Cc1cnnn1CCc1c(Cl)c(O)cc(O)c1C(=O)OC [Compound 40, methyl 3-chloro-2-(2-(5-(2-ethoxybenzyl)-1H-1,2,3-triazol-1-yl)ethyl)-4,6-dihydroxybenzoate]

More lines, now with the values behind:

SMILES	Fold selective for Grp94 (Grp94)	Kd (Hsp90α)
COC(=O)c1c(O)cc(O)c(Cl)c1CCn1nncc1Cc1ccccc1SC(C)C [Compound 45, methyl 3-chloro-4,6-dihydroxy-2-(2-(5-(2-(isopropylthio)benzyl)-1H-1,2,3-triazol-1-yl)ethyl)benzoate]	5 fold	2.06 ± 0.87 µM
CCCCc1ccccc1Cc1cnnn1CCc1c(Cl)c(O)cc(O)c1C(=O)OC [Compound 48, methyl 2-(2-(5-(2-butylbenzyl)-1H-1,2,3-triazol-1-yl)ethyl)-3-chloro-4,6-dihydroxybenzoate]	78 fold	6.72 ± 0.15 µM
CCSc1ccccc1Cc1cnnn1CCc1c(Cl)c(O)cc(O)c1C(=O)OC [Compound 43, methyl 3-chloro-2-(2-(5-(2-(ethylthio)benzyl)-1H-1,2,3-triazol-1-yl)ethyl)-4,6-dihydroxybenzoate]	43 fold	8.53 ± 1.05 µM
COC(=O)c1c(O)cc(O)c(Cl)c1CCn1nncc1Cc1ccc(Cl)c(Cl)c1 [Compound 37, methyl 3-chloro-2-(2-(5-(3,4-dichlorobenzyl)-1H-1,2,3-triazol-1-yl)ethyl)-4,6-dihydroxybenzoate]	5 fold	6.42 ± 0.45 µM
CCCSc1ccccc1Cc1cnnn1CCc1c(Cl)c(O)cc(O)c1C(=O)OC [Compound 44, methyl 3-chloro-4,6-dihydroxy-2-(2-(5-(2-(propylthio)benzyl)-1H-1,2,3-triazol-1-yl)ethyl)benzoate]	78 fold	4.39 ± 0.17 µM
COC(=O)c1c(O)cc(O)c(Cl)c1CCn1nncc1Cc1ccccc1CCC(F)(F)F [Compound 50, methyl 3-chloro-4,6-dihydroxy-2-(2-(5-(2-(3,3,3-trifluoropropyl)benzyl)-1H-1,2,3-triazol-1-yl)ethyl)benzoate]	70 fold	4.32 ± 0.39 µM
COC(=O)c1c(O)cc(O)c(Cl)c1CCn1nncc1Cc1ccccc1CC(C)C [Compound 49, methyl 3-chloro-4,6-dihydroxy-2-(2-(5-(2-isobutylbenzyl)-1H-1,2,3-triazol-1-yl)ethyl)benzoate]	6 fold	0.92 ± 0.05 µM
CCOc1cc(Cl)ccc1Cc1cnnn1CCc1c(Cl)c(O)cc(O)c1C(=O)OC [Compound 41, methyl 3-chloro-2-(2-(5-(4-chloro-2-ethoxybenzyl)-1H-1,2,3-triazol-1-yl)ethyl)-4,6-dihydroxybenzoate]	12 fold	8.9 ± 0.21 µM
CCCOc1ccccc1Cc1cnnn1CCc1c(Cl)c(O)cc(O)c1C(=O)OC [Compound 42, methyl 3-chloro-4,6-dihydroxy-2-(2-(5-(2-propoxybenzyl)-1H-1,2,3-triazol-1-yl)ethyl)benzoate]	30 fold	2.58 ± 0.36 µM

From paper PMC13205134, “Design, synthesis, and biological properties exhibited by 1,2,3-triazole based Grp94-selective inhibitors” (European journal of medicinal chemistry, 2025)
